The values that follow come from patent US20240132431A1, “METHOD FOR ALKYLATING ACIDIC FUNCTIONAL GROUP” (Chugai Seiyaku Kabushiki Kaisha, priority 2021, published 2024).

The structures appear in SMILES notation.

This experiment has as its target T1, Bcl-2 protein (Recombinant Human Bcl-2 Protein) (Homo sapiens, UniProt P10415).
T1 construct: purchased Novus NBP2-34889
Description: Binding evaluation of mixture library compounds to Bcl-2 using AS-MS (affinity selection mass spectrometry). The conditions noted are these: AS-MS, mixture library, Bcl-2, ASMS Ratio(%)=(A−C)/B×100; for ASMS ratio (%) n = 1: replicate n = 1; for ASMS ratio (%) n = 2: replicate n = 2. In a few lines: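 Bcl-2 binding is scored from LC/MS signal retained with protein through gel-filtration spin columns, normalised to unfiltered and protein-free controls. Incubation: 20 μM protein, […] per compound, 1 h, 23° C.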

T1 sequence (P10415 whole entry): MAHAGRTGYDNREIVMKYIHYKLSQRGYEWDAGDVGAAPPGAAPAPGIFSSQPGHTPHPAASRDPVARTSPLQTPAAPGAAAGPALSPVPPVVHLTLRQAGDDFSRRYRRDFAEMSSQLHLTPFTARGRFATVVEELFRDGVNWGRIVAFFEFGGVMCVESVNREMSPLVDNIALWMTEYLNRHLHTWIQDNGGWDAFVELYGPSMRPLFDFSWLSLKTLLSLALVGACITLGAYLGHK

As for `CCOc1cncc(-c2csc(CN3CCN(c4ccc(C(=O)NS(=O)(=O)CC56CC7CC(CC(C7)C5)C6)cc4)CC3)c2)c1` [B2A068-01, N-(1-Adamantylmethylsulfonyl)-4-[4-[[4-(5-ethoxypyridin-3-yl)thiophen-2-yl]methyl]piperazin-1-yl]benzamide], the “ASMS ratio (%) n = 1” value is given as 0.0% and the “ASMS ratio (%) n = 2” value is 0.0%.

For the compound `CCOc1cccc(C#Cc2ccccc2CN2CCN(c3ccc(C(=O)NS(=O)(=O)CC45CC6CC(CC(C6)C4)C5)cc3)CC2)c1` [B2A069-01, N-(1-Adamantylmethylsulfonyl)-4-[4-[[2-[2-(3-ethoxyphenyl)ethynyl]phenyl]methyl]piperazin-1-yl]benzamide], the “ASMS ratio (%) n = 1” value is 4.6% and the “ASMS ratio (%) n = 2” value is reported as −4.6%.

Turning to `CCOc1cncc(C#Cc2ccccc2CN2CCN(c3ccc(C(=O)NS(=O)(=O)CC45CC6CC(CC(C6)C4)C5)cc3)CC2)c1` [B2A070-01, N-(1-Adamantylmethylsulfonyl)-4-[4-[[2-[2-(5-ethoxypyridin-3-yl)ethynyl]phenyl]methyl]piperazin-1-yl]benzamide], the “ASMS ratio (%) n = 2” value was determined as 0.0%.

Turning to `CCOc1cccc(-c2ccccc2CN2CCN(c3ccc(C(=O)NS(=O)(=O)CC45CC6CC(CC(C6)C4)C5)nn3)CC2)c1` [B2A071-01, N-(1-Adamantylmethylsulfonyl)-6-[4-[[2-(3-ethoxyphenyl)phenyl]methyl]piperazin-1-yl]pyridazine-3-carboxamide], the “ASMS ratio (%) n = 1” value came to 16.1% and the “ASMS ratio (%) n = 2” value turned out to be 5.6%.

Turning to `CCOc1cncc(-c2ccccc2CN2CCN(c3ccc(C(=O)NS(=O)(=O)CC45CC6CC(CC(C6)C4)C5)nn3)CC2)c1` [B2A072-01], the “ASMS ratio (%) n = 1” value is 12.2% and the “ASMS ratio (%) n = 2” value was found to be 14.7%.

Turning to `CCOc1cccc(-c2ccc(CN3CCN(c4ccc(C(=O)NS(=O)(=O)CC56CC7CC(CC(C7)C5)C6)nn4)CC3)cc2C)c1` [B2A073-01, N-(1-Adamantylmethylsulfonyl)-6-[4-[[4-(3-ethoxyphenyl)-3-methylphenyl]methyl]piperazin-1-yl]pyridazine-3-carboxamide], the “ASMS ratio (%) n = 1” value was determined as 16.2% and the “ASMS ratio (%) n = 2” value is recorded as 13.5%.

For `CCOc1cncc(-c2ccc(CN3CCN(c4ccc(C(=O)NS(=O)(=O)CC56CC7CC(CC(C7)C5)C6)nn4)CC3)cc2C)c1` [B2A074-01, N-(1-Adamantylmethylsulfonyl)-6-[4-[[4-(5-ethoxypyridin-3-yl)-3-methylphenyl]methyl]piperazin-1-yl]pyridazine-3-carboxamide], the “ASMS ratio (%) n = 1” value is reported as 9.2% and the “ASMS ratio (%) n = 2” value came out at 1.9%.

As for `CCOc1cccc(-c2ccc(CN3CCN(c4ccc(C(=O)NS(=O)(=O)CC56CC7CC(CC(C7)C5)C6)nn4)CC3)c(CC)c2)c1` [B2A075-01, N-(1-Adamantylmethylsulfonyl)-6-[4-[[4-(3-ethoxyphenyl)-2-ethylphenyl]methyl]piperazin-1-yl]pyridazine-3-carboxamide], the “ASMS ratio (%) n = 1” value is on record as 4.6% and the “ASMS ratio (%) n = 2” value was 4.4%.

With `CCOc1cncc(-c2ccc(CN3CCN(c4ccc(C(=O)NS(=O)(=O)CC56CC7CC(CC(C7)C5)C6)nn4)CC3)c(CC)c2)c1` [B2A076-01, N-(1-Adamantylmethylsulfonyl)-6-[4-[[4-(5-ethoxypyridin-3-yl)-2-ethylphenyl]methyl]piperazin-1-yl]pyridazine-3-carboxamide], the “ASMS ratio (%) n = 1” value is on record as 23.4% and the “ASMS ratio (%) n = 2” value was 11.4%.

For `CCOc1cccc(-c2ccc(CN3CCN(c4ccc(C(=O)NS(=O)(=O)CC56CC7CC(CC(C7)C5)C6)nn4)CC3)cc2F)c1` [B2A077-01, N-(1-Adamantylmethylsulfonyl)-6-[4-[[4-(3-ethoxyphenyl)-3-fluorophenyl]methyl]piperazin-1-yl]pyridazine-3-carboxamide], the “ASMS ratio (%) n = 1” value is on record as 14.3% and the “ASMS ratio (%) n = 2” value turned out to be 21.9%.

For `CCOc1cncc(-c2ccc(CN3CCN(c4ccc(C(=O)NS(=O)(=O)CC56CC7CC(CC(C7)C5)C6)nn4)CC3)cc2F)c1` [B2A078-01, N-(1-Adamantylmethylsulfonyl)-6-[4-[[4-(5-ethoxypyridin-3-yl)-3-fluorophenyl]methyl]piperazin-1-yl]pyridazine-3-carboxamide], the “ASMS ratio (%) n = 1” value was 15.2% and the “ASMS ratio (%) n = 2” value was found to be 9.3%.

Turning to `CCOc1cncc(-c2ccc(CN3CCN(c4ccc(C(=O)NS(=O)(=O)CC56CC7CC(CC(C7)C5)C6)nn4)CC3)c(OC)c2)c1` [B2A080-01, N-(1-Adamantylmethylsulfonyl)-6-[4-[[4-(5-ethoxypyridin-3-yl)-2-methoxyphenyl]methyl]piperazin-1-yl]pyridazine-3-carboxamide], the “ASMS ratio (%) n = 1” value is 0.0% and the “ASMS ratio (%) n = 2” value turned out to be 0.0%.

For `CCOc1cccc(-c2cc(CN3CCN(c4ccc(C(=O)NS(=O)(=O)CC56CC7CC(CC(C7)C5)C6)nn4)CC3)cc(OCC)c2)c1` [B2A081-01, N-(1-Adamantylmethylsulfonyl)-6-[4-[[3-ethoxy-5-(3-ethoxyphenyl)phenyl]methyl]piperazin-1-yl]pyridazine-3-carboxamide], the “ASMS ratio (%) n = 1” value amounted to 18.6% and the “ASMS ratio (%) n = 2” value is reported as 16.7%.

Regarding `CCOc1cccc(-c2cc(CN3CCN(c4ccc(C(=O)NS(=O)(=O)CC56CC7CC(CC(C7)C5)C6)nn4)CC3)cc(OC(C)C)c2)c1` [B2A083-01, N-(1-Adamantylmethylsulfonyl)-6-[4-[[3-(3-ethoxyphenyl)-5-propan-2-yloxyphenyl]methyl]piperazin-1-yl]pyridazine-3-carboxamide], the “ASMS ratio (%) n = 1” value amounted to 10.3% and the “ASMS ratio (%) n = 2” value amounted to 0.0%.

Consider `CCOc1cncc(-c2cc(CN3CCN(c4ccc(C(=O)NS(=O)(=O)CC56CC7CC(CC(C7)C5)C6)nn4)CC3)cc(OC(C)C)c2)c1` [B2A084-01, N-(1-Adamantylmethylsulfonyl)-6-[4-[[3-(5-ethoxypyridin-3-yl)-5-propan-2-yloxyphenyl]methyl]piperazin-1-yl]pyridazine-3-carboxamide], for which the “ASMS ratio (%) n = 1” value was determined as 13.3% and the “ASMS ratio (%) n = 2” value is on record as 11.9%.

On to `CCOc1cccc(-c2cc(OC)c(CN3CCN(c4ccc(C(=O)NS(=O)(=O)CC56CC7CC(CC(C7)C5)C6)nn4)CC3)c(OC)c2)c1` [B2A085-01, N-(1-Adamantylmethylsulfonyl)-6-[4-[[4-(3-ethoxyphenyl)-2,6-dimethoxyphenyl]methyl]piperazin-1-yl]pyridazine-3-carboxamide], for which the “ASMS ratio (%) n = 1” value is listed as 0.0% and the “ASMS ratio (%) n = 2” value came to 0.0%.

In the case of `CCOc1cncc(-c2cc(OC)c(CN3CCN(c4ccc(C(=O)NS(=O)(=O)CC56CC7CC(CC(C7)C5)C6)nn4)CC3)c(OC)c2)c1` [B2A086-01, N-(1-Adamantylmethylsulfonyl)-6-[4-[[4-(5-ethoxypyridin-3-yl)-2,6-dimethoxyphenyl]methyl]piperazin-1-yl]pyridazine-3-carboxamide], the “ASMS ratio (%) n = 1” value is listed as 0.0% and the “ASMS ratio (%) n = 2” value is reported as 0.0%.

With `CCOc1cccc(-c2cc(CN3CCN(c4ccc(C(=O)NS(=O)(=O)CC56CC7CC(CC(C7)C5)C6)nn4)CC3)cc(C(F)(F)F)c2)c1` [B2A087-01, N-(1-Adamantylmethylsulfonyl)-6-[4-[[3-(3-ethoxyphenyl)-5-(trifluoromethyl)phenyl]methyl]piperazin-1-yl]pyridazine-3-carboxamide], the “ASMS ratio (%) n = 1” value is given as 7.2% and the “ASMS ratio (%) n = 2” value worked out at 12.7%.

Take `CCOc1cncc(-c2cc(CN3CCN(c4ccc(C(=O)NS(=O)(=O)CC56CC7CC(CC(C7)C5)C6)nn4)CC3)cc(C(F)(F)F)c2)c1` [B2A088-01, N-(1-Adamantylmethylsulfonyl)-6-[4-[[3-(5-ethoxypyridin-3-yl)-5-(trifluoromethyl)phenyl]methyl]piperazin-1-yl]pyridazine-3-carboxamide]: the “ASMS ratio (%) n = 1” value was determined as 12.0% and the “ASMS ratio (%) n = 2” value amounted to 14.0%.

Take `CCOc1cncc(-c2cc(CN3CCN(c4ccc(C(=O)NS(=O)(=O)CC56CC7CC(CC(C7)C5)C6)nn4)CC3)cc(OC(F)(F)F)c2)c1` [B2A090-01, N-(1-Adamantylmethylsulfonyl)-6-[4-[[3-(5-ethoxypyridin-3-yl)-5-(trifluoromethoxy)phenyl]methyl]piperazin-1-yl]pyridazine-3-carboxamide]: the “ASMS ratio (%) n = 1” value amounted to 22.0% and the “ASMS ratio (%) n = 2” value was determined as 4.7%.

For `CCOc1cccc(-c2ccc(CN3CCN(c4ccc(C(=O)NS(=O)(=O)CC56CC7CC(CC(C7)C5)C6)nn4)CC3)c3ccccc23)c1` [B2A091-01, N-(1-Adamantylmethylsulfonyl)-6-[4-[[4-(3-ethoxyphenyl)naphthalen-1-yl]methyl]piperazin-1-yl]pyridazine-3-carboxamide], the “ASMS ratio (%) n = 1” value is on record as −2.6% and the “ASMS ratio (%) n = 2” value is recorded as 3.8%.

Consider `CCOc1cncc(-c2ccc(CN3CCN(c4ccc(C(=O)NS(=O)(=O)CC56CC7CC(CC(C7)C5)C6)nn4)CC3)c3ccccc23)c1` [B2A092-01, N-(1-Adamantylmethylsulfonyl)-6-[4-[[4-(5-ethoxypyridin-3-yl)naphthalen-1-yl]methyl]piperazin-1-yl]pyridazine-3-carboxamide], for which the “ASMS ratio (%) n = 1” value was 20.8% and the “ASMS ratio (%) n = 2” value is listed as 16.6%.

Turning to `CCOc1cccc(-c2csc(CN3CCN(c4ccc(C(=O)NS(=O)(=O)CC56CC7CC(CC(C7)C5)C6)nn4)CC3)c2)c1` [B2A093-01, N-(1-Adamantylmethylsulfonyl)-6-[4-[[4-(3-ethoxyphenyl)thiophen-2-yl]methyl]piperazin-1-yl]pyridazine-3-carboxamide], the “ASMS ratio (%) n = 1” value is 13.0% and the “ASMS ratio (%) n = 2” value stood at 0.0%.
